For the assay, the target named is T1, recombinant full-length USP7 (Homo sapiens, UniProt Q93009).
T1 construct: A 25 μl reaction volume containing recombinant full-length USP7 (62 pM)
Description: USP7-mediated ubiquitin-rhodamine cleavage assay. Format: biochemical. The conditions noted are these: recombinant full-length USP7 62 pM, ubiquitin-rhodamine 100 nM, 1 hour reaction at room temperature. The gist of the method: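 USP7 (62 pM) in 20 mM HEPES pH 7.3, 150 mM NaCl, 1 mM TCEP, 125 μg/ml BSA was preincubated with compound (1% DMSO) for 30 min at room temperature. Ubiquitin-rhodamine (100 nM final) was then added for 1 hour, the reaction stopped with acetic acid, and fluorescence read; IC50 from 4-parameter fit.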

Setting [1] is: 30-minute incubation with compound, read-out: Potency: USP7 IC50.
The mark [2] stands for this setting: 30-minute pre-incubation, read-out: Potency (USP7 IC50).

Each structure is given as a SMILES string. pIC50: −log10 of the molar value. Counter-ions that a name gives are not always drawn. Like-named read-outs stand apart in the source and are kept apart here. Bounds are passed on as bounds.

T1 sequence (Q93009 whole entry): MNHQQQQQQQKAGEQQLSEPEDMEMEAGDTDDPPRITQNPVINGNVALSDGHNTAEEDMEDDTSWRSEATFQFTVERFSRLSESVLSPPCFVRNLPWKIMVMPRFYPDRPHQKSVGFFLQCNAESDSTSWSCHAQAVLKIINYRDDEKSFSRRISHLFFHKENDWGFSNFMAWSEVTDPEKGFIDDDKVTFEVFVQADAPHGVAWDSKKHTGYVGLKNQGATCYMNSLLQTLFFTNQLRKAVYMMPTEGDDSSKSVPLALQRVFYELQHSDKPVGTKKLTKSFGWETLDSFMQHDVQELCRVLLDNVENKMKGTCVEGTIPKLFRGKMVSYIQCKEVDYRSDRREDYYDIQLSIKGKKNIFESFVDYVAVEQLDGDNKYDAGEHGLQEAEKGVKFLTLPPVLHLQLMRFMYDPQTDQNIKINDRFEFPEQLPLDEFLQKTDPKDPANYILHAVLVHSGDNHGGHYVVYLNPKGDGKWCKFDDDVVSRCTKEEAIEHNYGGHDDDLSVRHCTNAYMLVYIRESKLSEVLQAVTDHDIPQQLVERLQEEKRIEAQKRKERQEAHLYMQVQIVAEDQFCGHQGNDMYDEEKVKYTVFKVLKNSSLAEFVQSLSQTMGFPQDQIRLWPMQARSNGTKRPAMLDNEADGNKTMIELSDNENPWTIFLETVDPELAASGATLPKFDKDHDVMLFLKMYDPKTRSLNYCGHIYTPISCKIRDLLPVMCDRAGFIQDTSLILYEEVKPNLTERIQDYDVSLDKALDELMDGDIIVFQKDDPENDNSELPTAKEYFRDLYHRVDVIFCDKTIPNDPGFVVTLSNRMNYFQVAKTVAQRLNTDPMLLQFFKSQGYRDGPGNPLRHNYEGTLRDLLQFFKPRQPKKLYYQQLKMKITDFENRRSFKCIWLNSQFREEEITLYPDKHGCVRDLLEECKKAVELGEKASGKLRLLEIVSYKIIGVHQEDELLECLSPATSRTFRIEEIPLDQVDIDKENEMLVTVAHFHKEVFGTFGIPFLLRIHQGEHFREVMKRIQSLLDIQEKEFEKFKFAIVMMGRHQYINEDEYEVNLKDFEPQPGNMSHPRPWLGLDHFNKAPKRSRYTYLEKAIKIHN

One may read the pIC50 as the IC50 on a negative log10 scale, so that one unit is a factor of ten. Consider `Cc1cc(Cl)cc(-c2ccnc3cc(CN4C(=O)C5C(C4=O)C5(C)C)sc23)c1OC1CNCC1(C)C` (stereo not drawn) [Example 369, 3-[[7-[5-chloro-2-(4,4-dimethylpyrrolidin-3-yl)oxy-3-methyl-phenyl]thieno[3.2-b]pyridin-2-yl]methyl]-6,6-dimethyl-3-azabicyclo[3.1.0]hexane-2,4-dione], for which the pIC50 under setting [1] is above 6.00. As for `Cc1cc(Cl)cc(-c2ccnc3cc(CO)sc23)c1O[C@@H]1CNC[C@@H]1C` [Example 56, (7-(5-Chloro-3-methyl-2-(((3S,4S)-4-methylpyrrolidin-3-yl)oxy)phenyl)thieno[3,2-b]pyridin-2-yl)methanol], the pIC50 under setting [1] is 5.00 to 6.00. As for `CO[C@H]1CC(=O)N(Cc2cc3nccc(-c4cc(Cl)cc(C)c4O[C@H]4CCCNC4)c3s2)C1=O` [Example 421, (3S)-1-[[7-[5-chloro-3-methyl-2-[[(3S)-3-piperidyl]oxy]phenyl]thieno[3,2-b]pyridin-2-yl]methyl]-3-methoxy-pyrrolidine-2,5-dione; 2,2,2-trifluoroacetic acid], the pIC50 under setting [2] was above 6.00. On the same count and under the same terms, in the case of `Cc1cc(Cl)cc(-c2ccnc3cc(CN4C(=O)CCC4=O)sc23)c1OC1CC(C)(N)C1` (stereo not drawn) [Example 443, 1-[[7-[2-(3-amino-3-methyl-cyclobutoxy)-5-chloro-3-methyl-phenyl]thieno[3,2-b]]pyridin-2-yl]methyl]pyrrolidine-2,5-dione dihydrochloride] it was above 6.00. Turning to `Cc1cc(Cl)cc(-c2ccnc3cc(CO)sc23)c1OCC1(F)CNC1` [Example 20, (7-(5-Chloro-2-((3-fluoroazetidin-3-yl)methoxy)-3-methylphenyl)thieno[3,2-b]pyridin-2-yl)methanol], under setting [1], the pIC50 was 5.00 to 6.00. Same read-out and setting: to `Cc1cc(Cl)cc(-c2ccnc3cc(CO)sc23)c1OC1CC2CNC1C2` (stereo not drawn) [Example 165, (7-(2-((2-Azabicyclo[2.2.1]heptan-6-yl)oxy)-5-chloro-3-methylphenyl)thieno[3,2-b]pyridin-2-yl)methanol] belongs 5.00 to 6.00; to `O=C1CCC(=O)N1Cc1cc2nccc(-c3cc(Cl)cc(C(F)(F)F)c3O[C@@H]3CNC[C@@H]3F)c2s1` [Example 120, 1-((7-(5-Chloro-2-(((3R,4S)-4-fluoropyrrolidin-3-yl)oxy)-3-(trifluoromethyl)phenyl)thieno[3,2-b]pyridin-2-yl)methyl)pyrrolidine-2,5-dione], above 6.00; to `Cc1cc(Cl)cc(-c2ccnc3cc(CN4C(=O)C5C(C4=O)C5(C)C)sc23)c1O[C@@H]1CNC[C@@H]1C` (stereo partly drawn) [Example 328, 3-[[7-[5-chloro-3-methyl-2-[(3S,4S)-4-methylpyrrolidin-3-yl]oxy-phenyl]thieno[3,2-b]pyridin-2-yl]methyl]-6,6-dimethyl-3-azabicyclo[3.1.0]hexane-2,4-dione], above 6.00.

With `Cc1cc(Cl)cc(-c2ccnc3cc(CO)sc23)c1OC[C@H]1CCN1` [Example 16, (R)-(7-(2-(Azetidin-2-ylmethoxy)-5-chloro-3-methylphenyl)thieno[3,2-b]pyridin-2-yl)methanol], the pIC50 under setting [1] is 4.52 to 5.00.

Take `Cc1cc(Cl)cc(-c2ncnc3cc(Cn4c(=O)ccn(C)c4=O)sc23)c1O[C@H]1CCCNCC1` [Example 582, 3-[[4-[2-[(4S)-azepan-4-yl]oxy-5-chloro-3-methyl-phenyl]thieno[3,2-d]pyrimidin-6-yl]methyl]-1-methyl-pyrimidine-2,4-dione]: under setting [2], the pIC50 was above 6.00. `Cc1cc(Cl)cc(-c2ccnc3cc(CN4C(=O)CCC4=O)sc23)c1O[C@@H]1CCN(C)C[C@@H]1C` [Example 308, 1-[[7-[5-chloro-2-[[(3S,4R)-1,3-dimethyl-4-piperidyl]oxy]-3-methyl-phenyl]thieno[3,2-b]pyridin-2-yl]methyl]pyrrolidine-2,5-dione]: the pIC50 under setting [1] is above 6.00.

As for `Cc1cc(Cl)cc(-c2ccnc3cc(Cn4c(=O)ccn(CC(F)(F)F)c4=O)sc23)c1O[C@H]1CCNC[C@@H]1F` [Example 559, 3-[[7-[5-chloro-2-[[(3S,4S)-3-fluoro-4-piperidyl]oxy]-3-methyl-phenyl]thieno[3,2-b]pyridin-2-yl]methyl]-1-(2,2,2-trifluoroethyl)pyrimidine-2,4-dione], the pIC50 under setting [2] was above 6.00. On the same count and under the same terms, in the case of `Cc1cc(Cl)cc(-c2ccnc3cc(Cn4c(=O)ccn(CC(F)(F)F)c4=O)sc23)c1O[C@@H]1CN[C@@H]1C` [Example 591, 3-[[7-[5-chloro-3-methyl-2-[(2R,3R)-2-methylazetidin-3-yl]oxy-phenyl]thieno[3,2-b]pyridin-2-yl]methyl]-1-(2,2,2-trifluoroethyl)pyrimidine-2,4-dione] it was above 6.00.

Regarding `Cc1cc(Cl)cc(-c2ccnc3cc(CO)sc23)c1O[C@@H]1CCC[C@H]1N(C)C` [Example 92, (7-(5-Chloro-2-(((1R,2R)-2-(dimethylamino)cyclopentyl)oxy)-3-methylphenyl)thieno[3,2-b]pyridin-2-yl)methanol], the pIC50 under setting [1] was below 4.52.

As to `Cc1cc(Cl)cc(-c2ccnc3cc(Cn4c(=O)ccn(CC(F)(F)F)c4=O)sc23)c1O[C@H]1CCC(C)(C)NC1` [Example 286, 3-[[7-[5-chloro-2-[[(3S)-6,6-dimethyl-3-piperidyl]oxy]-3-methyl-phenyl]thieno[3,2-b]pyridin-2-yl]methyl]-1-(2,2,2-trifluoroethyl)pyrimidine-2,4-dione; 2,2,2-trifluoroacetic acid], under setting [1], the pIC50 is above 6.00. Take `Cc1cc(Cl)cc(-c2ncnc3cc(Cn4c(=O)ccn(CC(F)(F)F)c4=O)sc23)c1O[C@@H]1CNC[C@@H]1C` [Example 595, 3-[[4-[5-chloro-3-methyl-2-[(3S,4S)-4-methylpyrrolidin-3-yl]oxy-phenyl]thieno[3,2-d]pyrimidin-6-yl]methyl]-1-(2,2,2-trifluoroethyl)pyrimidine-2,4-dione]: under setting [2], the pIC50 was above 6.00. The same measure, in the same setting: to `Cc1cc(Cl)cc(-c2ccnc3cc(CN4C(=O)CCC4=O)sc23)c1O[C@H]1CCCN(C2COC2)C1` [Example 449, 1-[[7-[5-chloro-3-methyl-2-[[(3S)-1-(oxetan-3-yl)-3-piperidyl]oxy]phenyl]thieno[3,2-b]pyridin-2-yl]methyl]pyrrolidine-2,5-dione] belongs above 6.00. As for `Cc1cc(Cl)cc(-c2ccnc3cc(CN4C(=O)C5C(C4=O)C5(C)C)sc23)c1O[C@H]1CCCN[C@@H]1C` (stereo partly drawn) [Example 364, 3-[[7-[5-chloro-3-methyl-2-[[(2R,3S)-2-methyl-3-piperidyl]oxy]phenyl]thieno[3,2-b]pyridin-2-yl]methyl]-6,6-dimethyl-3-azabicyclo[3.1.0]hexane-2,4-dione; 2,2,2-trifluoroacetic acid], under setting [1], the pIC50 is above 6.00. For `Cc1cc(Cl)cc(-c2ccnc3cc(CO)sc23)c1OC1C[C@@H]2C[C@H](C1)N2` (stereo partly drawn) [Example 190, (7-(2-(((1R,5S)-6-Azabicyclo[3.1.1]heptan-3-yl)oxy)-5-chloro-3-methylphenyl)thieno[3,2-b]pyridin-2-yl)methanol], under setting [1], the pIC50 was 4.52 to 5.00. With `Cc1cc(Cl)cc(-c2ccnc3cc(Cn4c(=O)ccn(C)c4=O)sc23)c1O[C@H]1CNC[C@H](C)C1` [Example 537, 3-[[7-[5-chloro-3-methyl-2-[[(3R,5R)-5-methyl-3-piperidyl]oxy]phenyl]thieno[3,2-b]pyridin-2-yl]methyl]-1-methyl-pyrimidine-2,4-dione], the pIC50 under setting [2] is above 6.00.

As for `Cc1cc(Cl)cc(-c2ccnc3cc(Cn4c(=O)ccn(CC(F)(F)F)c4=O)sc23)c1OCC1CNCCO1` (stereo not drawn) [Example 651, 3-[[7-[5-chloro-3-methyl-2-(morpholin-2-ylmethoxy)phenyl]thieno[3,2-b]pyridin-2-yl]methyl]-1-(2,2,2-trifluoroethyl)pyrimidine-2,4-dione; 2,2,2-trifluoroacetic acid], under setting [2], the pIC50 is above 6.00. With `Cc1cc(Cl)cc(-c2ccnc3cc(CO)sc23)c1OCC1CCCNC1` (stereo not drawn) [Example 189, (7-(5-Chloro-3-methyl-2-(piperidin-3-ylmethoxy)phenyl)thieno[3,2-b]pyridin-2-yl)methanol], under setting [1], the pIC50 is 4.52 to 5.00.

Take `Cc1cc(Cl)cc(-c2ncnc3cc(CN4C(=O)CCC4=O)sc23)c1O[C@@H]1CCNC[C@H]1F` [Example 306, 1-[[4-[5-chloro-2-[[(3R,4R)-3-fluoro-4-piperidyl]oxy]-3-methyl-phenyl]thieno[3,2-d]pyrimidin-6-yl]methyl]pyrrolidine-2,5-dione dihydrochloride]: the pIC50 under setting [1] was above 6.00. On the same count and under the same terms, to `Cc1cc(Cl)cc(-c2ccnc3cc(CN4C(=O)SC(C)(C)C4=O)sc23)c1O[C@H]1CCCNC1` [Example 295, 3-[[7-[5-chloro-3-methyl-2-[[(3S)-3-piperidyl]oxy]phenyl]thieno[3,2-b]pyridin-2-yl]methyl]-5,5-dimethyl-thiazolidine-2,4-dione; 2,2,2-trifluoroacetic acid] belongs above 6.00. Regarding `CCn1ccc(=O)n(Cc2cc3ncnc(-c4cc(Cl)cc(C)c4O[C@H]4CCCNC4)c3s2)c1=O` [Example 440, 3-[[4-[5-chloro-3-methyl-2-[[(3S)-3-piperidyl]oxy]phenyl]thieno[3,2-d]pyrimidin-6-yl]methyl]-1-ethyl-pyrimidine-2,4-dione; 2,2,2-trifluoroacetic acid], the pIC50 under setting [2] was above 6.00. As to `Cc1cc(Cl)cc(-c2ccnc3cc(CN4C(=O)CCC4=O)sc23)c1OC1CCNC(C)(C)C1` (stereo not drawn) [Example 205, 1-((7-(5-Chloro-2-((2,2-dimethylpiperidin-4-yl)oxy)-3-methylphenyl)thieno[3,2-b]pyridin-2-yl)methyl)pyrrolidine-2,5-dione], the pIC50 under setting [1] is above 6.00. The same measure, in the same setting: in the case of `Cc1cc(Cl)cc(-c2ccnc3cc(CN4C(=O)CCC4=O)sc23)c1O[C@@H]1CNC[C@@H]1CF` [Example 108, 1-((7-(5-Chloro-2-(((3S,4S)-4-(fluoromethyl)pyrrolidin-3-yl)oxy)-3-methylphenyl)thieno[3,2-b]pyridin-2-yl)methyl)pyrrolidine-2,5-dione] it was above 6.00.

For the origin of these results see US10722514B2 (FLX Bio, Inc., priority 2017, dated 2020).
